Test results reported in paper PMC8938680 (2022).

Test system: E. coli thiM TPP riboswitch (ITC construct) (RNA, riboswitch) GGCAGUACUCGGGGUGCCCUUCUGCGUGAAGGCUGAGAAAUACCCGUAUCACCUGAUCUGGAUAAUGCCAGCGUAGGGAAGUGCUG
Experiment: ITC
Conditions: 1 mM MgCl2, 200 mM potassium acetate; 100 mM HEPES-Na pH 8.0, 25 °C

Row | Compound | KT [µM] | KL [nM]
1 | Cc1ncc(C[n+]2csc(CCO)c2C)c(N)n1 | 11 | –
2 | Cc1ncc(C[n+]2csc(CCOP(=O)(O)CP(=O)(O)O)c2C)c(N)n1 | – | 19
